Reference: patent publication US10717799B2, “Copolymers as excipients for effective solubilization of poorly water-soluble substances from solid mixtures” (Dow Global Technologies LLC, priority 2015, dated 2020)
≈ marks a conversion by molar mass, not a printed value.

Legend:
[1] = Supersaturation (maintenance) test with Nilutamide; conditions: phosphate buffer saline with 0.5 wt. % FaSSIF, 37 °C, pH 6.5, aqueous with cosolvent or surfactant or cyclodextrin, kinetic from dmso stock
physchem [2] = conditions: 37 °C, pH 6.5, aqueous with cosolvent or surfactant or cyclodextrin, kinetic from dmso stock
physchem [3] = conditions: 37 °C, pH 6.5, fassif, thermodynamic from solid
[4] = pH 6.5
[5] = pH 6.5; remark: listed apart in the source
[6] = pH 6.5; remark: listed apart in the source

Compound `CC1(C)NC(=O)N(c2ccc([N+](=O)[O-])c(C(F)(F)F)c2)C1=O` [Nilutamide] has a solubility at 30 min [1] of 473 µg/mL (≈ 1490 µM), a solubility at 90 min [1] of 364 µg/mL (≈ 1150 µM) and a solubility at 180 min [1] of 308 µg/mL (≈ 971 µM).
In the case of `O=C1NC(=O)C(c2ccccc2)(c2ccccc2)N1` [Phenytoin], the solubility at 30 min (physchem [2]) was 75 µg/mL (≈ 297 µM), the solubility at 90 min (physchem [2]) was 70 µg/mL (≈ 277 µM) and the solubility at 180 min (physchem [2]) was 73 µg/mL (≈ 289 µM). The solubility at 4 min (physchem [3]) was roughly 50 µg/mL (≈ 198 µM).
In the case of “poly-[(N,N-diethylacrylamide)-co-(N,N-dimethylacrylamide)] [Example 5-1]”, the “c(30 min) concentration of solubilized Phenytoin” value [4] was 172 mg/L, the “c(90 min) concentration of solubilized Phenytoin” value [4] was 197 mg/L and the “c(180 min) concentration of solubilized Phenytoin” value [4] was 137 mg/L.
With “poly-[(N,N-diethylacrylamide)-co-(N,N-dimethylacrylamide)] [Example 5-2]” the “c(30 min) concentration of solubilized Phenytoin” value [4] was 319 mg/L, the “c(90 min) concentration of solubilized Phenytoin” value [4] was 322 mg/L and the “c(180 min) concentration of solubilized Phenytoin” value [4] was 223 mg/L.
With “poly-[(N,N-diethylacrylamide)-co-(N,N-dimethylacrylamide)] [Example 5-3]” the “c(30 min) concentration of solubilized Phenytoin” value [4] was 595 mg/L, the “c(90 min) concentration of solubilized Phenytoin” value [4] was 413 mg/L and the “c(180 min) concentration of solubilized Phenytoin” value [4] was 257 mg/L.
For “poly-[(N,N-diethylacrylamide)-co-(N,N-dimethylacrylamide)] [Example 5-4]”, the “c(30 min) concentration of solubilized Phenytoin” value [4] was 646 mg/L, the “c(90 min) concentration of solubilized Phenytoin” value [4] was 667 mg/L and the “c(180 min) concentration of solubilized Phenytoin” value [4] was 591 mg/L.
For “poly-[(N,N-diethylacrylamide)-co-(N,N-dimethylacrylamide)] [Example 5-5]”, the “c(30 min) concentration of solubilized Phenytoin” value [4] was 348 mg/L, the “c(90 min) concentration of solubilized Phenytoin” value [4] was 359 mg/L and the “c(180 min) concentration of solubilized Phenytoin” value [4] was 295 mg/L.
For “poly-[(N-isopropylacrylamide)-co-(N,N-dimethylacrylamide)] [Example 1-1]”, the “c(30 min) concentration of solubilized Phenytoin” value [4] was 1,208 mg/L, the “c(90 min) concentration of solubilized Phenytoin” value [4] was 1,024 mg/L and the “c(180 min) concentration of solubilized Phenytoin” value [4] was 1,104 mg/L.
In the case of “poly-[(N-isopropylacrylamide)-co-(N,N-dimethylacrylamide)] [Example 1-3]”, the “c(30 min) concentration of solubilized Phenytoin” value [4] was 992 mg/L, the “c(90 min) concentration of solubilized Phenytoin” value [4] was 794 mg/L and the “c(180 min) concentration of solubilized Phenytoin” value [4] was 876 mg/L.
With “poly-[(N-isopropylacrylamide)-co-(N,N-dimethylacrylamide)] [Example 1-4]” the “c(30 min) concentration of solubilized Phenytoin” value [4] was 1,066 mg/L, the “c(90 min) concentration of solubilized Phenytoin” value [4] was 758 mg/L and the “c(180 min) concentration of solubilized Phenytoin” value [4] was 936 mg/L.
With “poly-[(N-isopropylacrylamide)-co-(N,N-dimethylacrylamide)] [Example 1-5]” the “c(30 min) concentration of solubilized Phenytoin” value [4] was 942 mg/L, the “c(90 min) concentration of solubilized Phenytoin” value [4] was 759 mg/L and the “c(180 min) concentration of solubilized Phenytoin” value [4] was 823 mg/L.
With “poly-[(N-isopropylacrylamide)-co-(N,N-dimethylacrylamide)] [Example 1-6]” the “c(30 min) concentration of solubilized Phenytoin” value [4] was 962 mg/L, the “c(90 min) concentration of solubilized Phenytoin” value [4] was 649 mg/L and the “c(180 min) concentration of solubilized Phenytoin” value [4] was 875 mg/L.
For “poly-[(N-isopropylacrylamide)-co-(N,N-dimethylacrylamide)] [Example 1-7]”, the “c(30 min) concentration of solubilized Phenytoin” value [4] was 156 mg/L, the “c(90 min) concentration of solubilized Phenytoin” value [4] was 137 mg/L and the “c(180 min) concentration of solubilized Phenytoin” value [4] was 145 mg/L.
In the case of “poly-[(N-isopropylacrylamide)-co-(N,N-dimethylacrylamide)] [Example 1-8]”, the “c(30 min) concentration of solubilized Phenytoin” value [4] was 183 mg/L, the “c(90 min) concentration of solubilized Phenytoin” value [4] was 173 mg/L and the “c(180 min) concentration of solubilized Phenytoin” value [4] was 184 mg/L.
For “poly-[(N-isopropylacrylamide)-co-(N,N-dimethylacrylamide)] [Example 1-9]”, the “c(30 min) concentration of solubilized Phenytoin” value [4] was 301 mg/L, the “c(90 min) concentration of solubilized Phenytoin” value [4] was 266 mg/L and the “c(180 min) concentration of solubilized Phenytoin” value [4] was 265 mg/L.
For “poly-[(N-isopropylacrylamide)-co-(N,N-dimethylacrylamide)] [Example 1-10]”, the “c(30 min) concentration of solubilized Phenytoin” value [4] was 392 mg/L, the “c(90 min) concentration of solubilized Phenytoin” value [4] was 281 mg/L and the “c(180 min) concentration of solubilized Phenytoin” value [4] was 255 mg/L.
With “poly-[(N-isopropylacrylamide)-co-(N,N-dimethylacrylamide)] [Example 1-11]” the “c(30 min) concentration of solubilized Phenytoin” value [4] was 895 mg/L, the “c(90 min) concentration of solubilized Phenytoin” value [4] was 343 mg/L and the “c(180 min) concentration of solubilized Phenytoin” value [4] was 300 mg/L.
For “poly-[(N-isopropylacrylamide)-co-(N,N-dimethylacrylamide)] [Example 1-15]”, the “c(30 min) concentration of solubilized Nilutamide” value [5] was 828 mg/L, the “c(90 min) concentration of solubilized Nilutamide” value [5] was 833 mg/L and the “c(180 min) concentration of solubilized Nilutamide” value [5] was 848 mg/L. For the same compound, the “c(30 min) concentration of solubilized Phenytoin” value [4] was 479 mg/L, the “c(90 min) concentration of solubilized Phenytoin” value [4] was 455 mg/L and the “c(180 min) concentration of solubilized Phenytoin” value [4] was 409 mg/L.
With “poly-[(N-isopropylacrylamide)-co-(N,N-dimethylacrylamide)] [Example 1-16]” the “c(30 min) concentration of solubilized Phenytoin” value [4] was 413 mg/L, the “c(90 min) concentration of solubilized Phenytoin” value [4] was 379 mg/L and the “c(180 min) concentration of solubilized Phenytoin” value [4] was 407 mg/L.
In the case of “poly-[(N-isopropylacrylamide)-co-(N,N-dimethylacrylamide)] [Example 1-17]”, the “solubilized drug concentration after continuous decrease” value [6] was “below 200 mg/L”.
